Where two headings read alike, the source gives them in different places. Square brackets hold non-standard residues; d marks the D form. Peptide text beside a SMILES is read from it.
Tests used:
α-syn (1–108) = assay: De novo ThT aggregation of 1-108 truncated α-syn; assay type: biochemical; conditions: 25 µM 1-108 α-syn, equimolar peptide
Method: ThT assay was used for different purposes. […] Lag-time and t½ were calculated as described previously. […] Measurements were taken every 5 min (n = 3).
Aggregation curves were fitted with a symmetric Boltzmann fit and the steady state signal was normalized to 1.

Solubility of D-peptides = conditions: PBS pH 7.4, 1 h at 37 °C, 20,800×g centrifugation, UV–vis absorption; lyophilized chloride salt
PC12 cells = assay type: cell-based; conditions: for PC12 cell viability with PFF: 24 h
Method: PC12 cells (Leibniz Institute DSMZ, GE) were cultivated on collagen A-coated (Biochrom GmbH, GE) tissue culture flasks in RPMI 1640 medium supplemented with 5% fetal calf serum and 10% horse serum in a 95% humidified atmosphere with 5% CO2 at 37 °C. 10,000 cells per well in a volume of 100 µl were seeded on collagen A-coated 96-well plates (Thermo Fisher Scientific, USA) and were incubated for 24 h at 37 °C and 300 rpm in a thermo cycler. […] In addition, 15 µM of the peptides alone, cell media, buffer without peptides and 0.1% Triton X-100 (cytotoxic compound) served as controls. After further incubation in a 95% humidified atmosphere with 5% CO2 at 37 °C for 24 h, cell viability was measured using the Cell Proliferation Kit I (MTT) (Roche Applied Science, CH) according to the manufacturer’s protocol. The MTT formazan product was quantified by measuring the absorbance at 570 nm corrected by subtraction of the absorbance at 660 nm in a FLUOStar Optima plate reader (BMG Labtech, GE). All results were normalized to untreated cells grown in medium only. Test on significance was performed using one-way ANOVA with Bonferroni post hoc analysis (OriginPro 2020, OriginLab, USA; n = 4).
Test on significance was performed using one-way ANOVA with Bonferroni post hoc analysis: * […], *** p ≤ 0.01. Mean data are shown with ±SD (n = 4). While the cell viability was reduced by 50 % in the presence of 30 nM soluble small α-syn PFF alone, no toxic effect of the compounds on PC12 was observed. […] Thus, similar cell viability saving effects were found for SVD-1a using a 30-fold lower concentration.

small α-syn PFF seeds = assay: AFM analysis of small α-syn PFF seeds; assay type: biochemical; conditions: 400 and 1600 nM SVD-1a, 3 days at 37 °C, PBS pH 7.4
Method: Fig. 4 SVD-1a disassembles small α-syn PFF seeds into α-syn monomers. Small α-syn PFF seeds were prepared as described previously. […] A and B Time-dependent DLS measurements with 200 nM small α-syn PFF seeds in the absence (A) and presence (B) of 500 nM SVD-1a. 1 ml sample was continuously measured in a sealed quartz cuvette at 37 °C under quiescent conditions every 60 s for 72 h in a SpectroSize 300 instrument (XtalConcepts, GE). Data are shown as a radius plot where the signal amplitude of each particle size is represented by the data point diameter. C One-phase exponential decay fit of “200 nM PFF + 500 nM SVD-1a” shown in (B). […] PFF and monomer samples that were incubated without SVD-1a served as controls. α-Syn was detected with the antibody Syn211. […] In the upper part of the blot, above the marker range, PFFs were detected, using a longer exposure time due to a weaker signal (see Supplementary Fig. 11 for the whole blot image with different exposure times). F Size-based fractionation by centrifugal concentration followed by ELISA quantification. […] After incubation, the samples were fractioned using a 100 kDa MWCO centrifugal concentrator (Merck, Microcon DNA Fast Flow 100 MWCO). α-Syn content of flow through (red) and retentate (blue) was quantified using an α-syn specific ELISA (BioLegend, Human α-Synuclein (Colorimetric), 448607). […]

SMILES	inhibition of α-syn (1–108) aggregation (α-syn (1–108))	concentration completely retained in supernatant (Solubility of D-peptides)	PC12 cell viability with PFF (PC12 cells; 15 µM)	small α-syn PFF particle number (small α-syn PFF seeds)	fold lower concentration for similar cell viability saving effect vs SVD-1 (PC12 cells; 0.5 µM SVD-1a vs 15 µM SVD-1)	PC12 cell viability with PFF (PC12 cells; 0.5 µM)
CC[C@@H](C)[C@@H](NC(=O)[C@@H](Cc1c[nH]cn1)NC(=O)[C@@H](CCC(=O)O)NC(=O)[C@@H](CCC(N)=O)NC(=O)[C@@H](Cc1c[nH]c2ccccc12)NC(=O)[C@@H](Cc1ccc(O)cc1)NC(=O)[C@H](NC(=O)[C@@H](CCC(=O)O)NC(=O)[C@@H](Cc1c[nH]cn1)NC(=O)[C@H](NC(=O)[C@H]1CCCN1C(=O)[C@@H](CCSC)NC(=O)[C@H](N)CCCCN)[C@H](C)O)[C@H](C)O)C(=O)N[C@H](Cc1c[nH]c2ccccc12)C(=O)N[C@H](Cc1c[nH]cn1)C(=O)N[C@H](C)C(N)=O [SVD-1] (H-[dK][dM][dP][dT][dH][dE][dT][dY][dW][dQ][dE][dH][dI][dW][dH][dA]-NH2)	delay of 1- 108 truncated α-syn aggregation	at least 1 mM	89%			
CC[C@@H](C)[C@@H](NC(=O)[C@@H](Cc1c[nH]cn1)NC(=O)[C@@H](CCC(=O)O)NC(=O)[C@@H](CCC(N)=O)NC(=O)[C@@H](Cc1c[nH]c2ccccc12)NC(=O)[C@@H](Cc1ccc(O)cc1)NC(=O)[C@H](NC(=O)[C@@H](CCC(=O)O)NC(=O)[C@@H](Cc1c[nH]cn1)NC(=O)[C@H](NC(=O)[C@H]1CCCN1C(=O)[C@@H](CC(C)C)NC(=O)[C@H](N)CCCNC(=N)N)[C@H](C)O)[C@H](C)O)C(=O)N[C@H](Cc1c[nH]c2ccccc12)C(=O)N[C@H](Cc1c[nH]cn1)C(=O)N[C@H](C)C(=O)N[C@H](CCCNC(=N)N)C(=O)N[C@H](CCCNC(=N)N)C(=O)N[C@H](CCCNC(=N)N)C(=O)N[C@H](CCCNC(=N)N)C(=O)N[C@H](CCCNC(=N)N)C(N)=O [SVD-1a] (H-[dR][dL][dP][dT][dH][dE][dT][dY][dW][dQ][dE][dH][dI][dW][dH][dA][dR][dR][dR][dR][dR]-NH2)	delay of 1- 108 truncated α-syn aggregation			decrease in small α-syn PFF particle number	30 -fold	82%
